Target: T1, CDK2 (Homo sapiens, UniProt P24941)
T1 construct: The expressed protein was approximately 34 kDa in size; made in house; host or cells: SF9 insect cells (baculovirus, pFASTBAC)
Experiment: CDK2 in vitro kinase assay (SPA, 33P-ATP, biotinylated Histone H1 peptide)
Assay type: biochemical
Conditions: recombinant cyclin A or E-dependent CDK2 from baculovirus/SF9 cells; 1 hour at room temperature; 8 point dilutions in duplicate

Q: Which IC50 does the source give for `Nc1cc2nc(-c3ccccc3)cc(N)n2n1` here?
A: The IC50 was 0.08 µM.

Q: How did the IC50 turn out when `Nc1nn2c(N)cc(-c3ccccc3)nc2c1Br` was run?
A: The IC50 was 4.67 µM.

— patent publication US7645762B2, “Substituted pyrazolo[1,5-a] pyrimidines as protein kinase inhibitors” (Schering Corporation, priority 2005, dated 2010)
